Results published in PubChem BioAssay (NCI).
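How tested: cells in 96-well plates exposed to compound for 48 hours at five concentrations. The concentration for full growth arrest is given as TGI.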

Experiments:
Assay in all cases: growth of human tumour cells (NCI), 48 h
SNB-19 CNS = system: SNB-19 CNS
IGROV1 ovarian = system: IGROV1 ovarian
SR leukemia = system: SR leukemia
DLD-1 colon = system: DLD-1 colon
OVCAR-3 ovarian = system: OVCAR-3 ovarian
SF-268 CNS = system: SF-268 CNS
786-0 renal = system: 786-0 renal
M14 melanoma = system: M14 melanoma
A498 renal = system: A498 renal
HL-60(TB) leukemia = system: HL-60(TB) leukemia
KM20L2 colon = system: KM20L2 colon
EKVX NSCLC = system: EKVX NSCLC
HT29 colon = system: HT29 colon
NCI-H522 lung = system: NCI-H522 lung
UO-31 renal = system: UO-31 renal
SF-295 CNS = system: SF-295 CNS
HCC-2998 colon = system: HCC-2998 colon
DMS 273 small cell lung = system: DMS 273 small cell lung
LXFL 529 NSCLC = system: LXFL 529 NSCLC
A549 NSCLC = system: A549 NSCLC
SNB-78 CNS = system: SNB-78 CNS
UACC-257 melanoma = system: UACC-257 melanoma
RXF 393 renal = system: RXF 393 renal
SF-539 CNS = system: SF-539 CNS
K-562 leukemia = system: K-562 leukemia
NCI-H226 lung = system: NCI-H226 lung
NCI-H23 lung = system: NCI-H23 lung
MALME-3M melanoma = system: MALME-3M melanoma
OVCAR-8 ovarian = system: OVCAR-8 ovarian
CAKI-1 renal = system: CAKI-1 renal
DMS 114 small cell lung = system: DMS 114 small cell lung
M19-MEL melanoma = system: M19-MEL melanoma
LOX IMVI melanoma = system: LOX IMVI melanoma
SNB-75 CNS = system: SNB-75 CNS
OVCAR-5 ovarian = system: OVCAR-5 ovarian
HCT-15 colon = system: HCT-15 colon
SN12C renal = system: SN12C renal
SW-620 colon = system: SW-620 colon
SK-MEL-28 melanoma = system: SK-MEL-28 melanoma
U251 CNS = system: U251 CNS
CCRF-CEM leukemia = system: CCRF-CEM leukemia
NCI-H460 lung = system: NCI-H460 lung
MOLT-4 leukemia = system: MOLT-4 leukemia
HOP-92 NSCLC = system: HOP-92 NSCLC
OVCAR-4 ovarian = system: OVCAR-4 ovarian
SK-MEL-2 melanoma = system: SK-MEL-2 melanoma
XF 498 CNS = system: XF 498 CNS
TK-10 renal = system: TK-10 renal
HCT-116 colon = system: HCT-116 colon
RPMI-8226 leukemia = system: RPMI-8226 leukemia
ACHN renal = system: ACHN renal
SK-MEL-5 melanoma = system: SK-MEL-5 melanoma
UACC-62 melanoma = system: UACC-62 melanoma
HOP-18 NSCLC = system: HOP-18 NSCLC
COLO 205 colon = system: COLO 205 colon
KM12 colon = system: KM12 colon
SK-OV-3 ovarian = system: SK-OV-3 ovarian
HOP-62 NSCLC = system: HOP-62 NSCLC

Measured: TGI

Cc1cccc(N=C2NC(=O)C(CC(=O)Nc3ccc(C)cc3C)S2)c1 (stereo not given)
> 100 µM: SNB-19 CNS | IGROV1 ovarian | SR leukemia | DLD-1 colon | OVCAR-3 ovarian | SF-268 CNS | 786-0 renal | M14 melanoma | A498 renal | HL-60(TB) leukemia | KM20L2 colon | EKVX NSCLC | HT29 colon | NCI-H522 lung | UO-31 renal | SF-295 CNS | HCC-2998 colon | DMS 273 small cell lung | LXFL 529 NSCLC | A549 NSCLC | SNB-78 CNS | UACC-257 melanoma | RXF 393 renal | SF-539 CNS | K-562 leukemia | NCI-H226 lung | NCI-H23 lung | MALME-3M melanoma | OVCAR-8 ovarian | CAKI-1 renal | DMS 114 small cell lung | M19-MEL melanoma | LOX IMVI melanoma | SNB-75 CNS | OVCAR-5 ovarian | HCT-15 colon | SN12C renal | SW-620 colon | SK-MEL-28 melanoma | U251 CNS | CCRF-CEM leukemia | NCI-H460 lung | MOLT-4 leukemia | HOP-92 NSCLC | OVCAR-4 ovarian | SK-MEL-2 melanoma | XF 498 CNS | TK-10 renal | HCT-116 colon | RPMI-8226 leukemia | ACHN renal | SK-MEL-5 melanoma | UACC-62 melanoma

CC1(O)CCC2(C)C(=O)C1(C)CCC21OCCO1 (stereo not given)
> 100 µM: SNB-19 CNS | IGROV1 ovarian | SR leukemia | DLD-1 colon | HOP-18 NSCLC | OVCAR-3 ovarian | SF-268 CNS | 786-0 renal | M14 melanoma | HL-60(TB) leukemia | COLO 205 colon | EKVX NSCLC | HT29 colon | NCI-H522 lung | UO-31 renal | SF-295 CNS | HCC-2998 colon | DMS 273 small cell lung | LXFL 529 NSCLC | A549 NSCLC | KM12 colon | UACC-257 melanoma | RXF 393 renal | SF-539 CNS | K-562 leukemia | NCI-H226 lung | NCI-H23 lung | MALME-3M melanoma | OVCAR-8 ovarian | DMS 114 small cell lung | M19-MEL melanoma | OVCAR-5 ovarian | HCT-15 colon | SN12C renal | SW-620 colon | SK-MEL-28 melanoma | U251 CNS | CCRF-CEM leukemia | NCI-H460 lung | MOLT-4 leukemia | SK-OV-3 ovarian | HOP-92 NSCLC | SK-MEL-2 melanoma | XF 498 CNS | TK-10 renal | RPMI-8226 leukemia | ACHN renal | SK-MEL-5 melanoma

Cc1c(C(=O)CC(=O)C(=O)Nc2cc(Cl)ccc2Cl)[n+](=O)c2ccccc2n1[O-]
59.1 µM: M19-MEL melanoma
63.6 µM: SR leukemia
69.4 µM: DMS 273 small cell lung
61 µM: OVCAR-3 ovarian
57.8 µM: RPMI-8226 leukemia
> 100 µM: SNB-19 CNS | IGROV1 ovarian | HOP-18 NSCLC | SF-268 CNS | 786-0 renal | A498 renal | KM20L2 colon | EKVX NSCLC | HT29 colon | UO-31 renal | SF-295 CNS | HCC-2998 colon | LXFL 529 NSCLC | A549 NSCLC | KM12 colon | SNB-78 CNS | UACC-257 melanoma | RXF 393 renal | SF-539 CNS | K-562 leukemia | NCI-H226 lung | NCI-H23 lung | MALME-3M melanoma | OVCAR-8 ovarian | CAKI-1 renal | OVCAR-5 ovarian | SN12C renal | SW-620 colon | SK-MEL-28 melanoma | U251 CNS | CCRF-CEM leukemia | SK-OV-3 ovarian | HOP-92 NSCLC | OVCAR-4 ovarian | SK-MEL-2 melanoma | XF 498 CNS | TK-10 renal | HCT-116 colon | HOP-62 NSCLC | ACHN renal | SK-MEL-5 melanoma
66.5 µM: MOLT-4 leukemia
64.4 µM: M14 melanoma
61.3 µM: DMS 114 small cell lung
53.6 µM: NCI-H522 lung
99.5 µM: NCI-H460 lung
69.6 µM: COLO 205 colon
90.2 µM: HCT-15 colon
40.2 µM: UACC-62 melanoma
93.5 µM: LOX IMVI melanoma
78.1 µM: SNB-75 CNS

CCOC(=O)C1=C(Nc2ccc(Cl)c(Cl)c2)OC/C1=N\NC(=O)Cc1ccccc1
> 100 µM: SNB-19 CNS | IGROV1 ovarian | DLD-1 colon | HOP-18 NSCLC | OVCAR-3 ovarian | SF-268 CNS | 786-0 renal | M14 melanoma | A498 renal | HL-60(TB) leukemia | KM20L2 colon | COLO 205 colon | EKVX NSCLC | NCI-H522 lung | UO-31 renal | SF-295 CNS | HCC-2998 colon | DMS 273 small cell lung | LXFL 529 NSCLC | A549 NSCLC | KM12 colon | SNB-78 CNS | UACC-257 melanoma | RXF 393 renal | SF-539 CNS | K-562 leukemia | NCI-H226 lung | NCI-H23 lung | MALME-3M melanoma | OVCAR-8 ovarian | CAKI-1 renal | DMS 114 small cell lung | M19-MEL melanoma | LOX IMVI melanoma | SNB-75 CNS | OVCAR-5 ovarian | SN12C renal | SW-620 colon | SK-MEL-28 melanoma | U251 CNS | CCRF-CEM leukemia | NCI-H460 lung | MOLT-4 leukemia | SK-OV-3 ovarian | OVCAR-4 ovarian | SK-MEL-2 melanoma | XF 498 CNS | TK-10 renal | HCT-116 colon | RPMI-8226 leukemia | HOP-62 NSCLC | SK-MEL-5 melanoma | UACC-62 melanoma
